Source: patent US7956196B2, “1,3-dihydro-benzimidazol-2-ylidene amines as inhibitors of respiratory syncytial virus replication” (Tibotec Pharmaceuticals Ltd., priority 2005, dated 2011)
Structures can show the parent of a compound that is named as a salt. Where two headings read alike, the source gives them in different places.

Key:
[1] = test system: Respiratory Syncytial Virus; experiment: In vitro screening for activity against RSV, automated tetrazolium-based (MTT) colorimetric assay in HeLa cells; assay type: cell-based; details: human respiratory syncytial virus, 168 h, read-out: pIC50 (converted)
Excerpt: In vitro screening of compounds of formula (I) for activity against RSV. The percent protection against cytopathology caused by viruses (antiviral activity or EC50) achieved by tested compounds and their cytotoxicity (CC50) are both calculated from dose-response curves. The selectivity of the antiviral effect is represented by the selectivity index (SI), calculated by dividing the CC50 (cytotoxic dose for 50% of the cells) by the EC50 (antiviral activity for 50% of the cells). The tables in the above experimental part list the category to which each of the prepared compounds belong: Compounds belonging to activity category “A” have a pEC50 (-log of EC50 when expressed in molar units) equal to or more than 7. Compounds belonging to activity category “B” have a pEC50 value between 6 and 7.
Automated tetrazolium-based colorimetric assays were used for determination of EC50 and CC50 of test compounds. Flat-bottom, 96-well plastic microtiter trays were filled with 180 μl of Eagle's Basal Medium, supplemented with 5% FCS (0% for FLU) and 20 mM Hepes buffer. Subsequently, stock solutions (7.8×final test concentration) of compounds were added in 45 μl volumes to a series of triplicate wells so as to allow simultaneous evaluation of their effects on virus- and mock-infected cells. Five five-fold dilutions were made directly in the microtiter trays using a robot system. Untreated virus controls, and HeLa cell controls were included in each test. Approximately 100 TCID50 of Respiratory Syncytial Virus was added to two of the three rows in a volume of 50 μl. The same volume of medium was added to the third row to measure the cytotoxicity of the compounds at the same concentrations as those used to measure the antiviral activity. After two hours of incubation, a suspension (4×10^5 cells/ml) of HeLa cells was added to all wells in a volume of 50 μl. The cultures were incubated at 37° C. in a 5% CO2 atmosphere. Seven days after infection the cytotoxicity and the antiviral activity was examined spectrophotometrically. To each well of the microtiter tray, 25 μl of a solution of MTT (3-(4,5-dimethylthiazol-2-yl)-2,5-diphenyltetrazolium bromide) was added. The trays were further incubated at 37° C. for 2 hours, after which the medium was removed from each cup. Solubilization of the formazan crystals was achieved by adding 100 μl 2-propanol. Complete dissolution of the formazan crystals were obtained after the trays have been placed on a plate shaker for 10 min. Finally, the absorbances were read in an eight-channel computer-controlled photometer (Multiskan MCC, Flow Laboratories) at two wavelengths (540 and 690 nm). The absorbance measured at 690 nm was automatically subtracted from the absorbance at 540 nm, so as to eliminate the effects of non-specific absorption.
The percent protection against cytopathology caused by viruses (antiviral activity or EC50) achieved by tested compounds and their cytotoxicity (CC50) were both calculated from dose-response curves. The selectivity of the antiviral effect is represented by the selectivity index (SI), calculated by dividing the CC50 (cytotoxic dose for 50% of the cells) by the EC50 (antiviral activity for 50% of the cells).

[2] = protection against RSV cytopathology in HeLa cells, MTT readout seven days after infection

SMILES | IC50 [1, 2] [nM] | melting point [°C] | IC50 ([1]; HeLa) [nM]
N#Cc1ccc(Cn2c(=NC(=O)c3cccc([N+](=O)[O-])c3)n(Cc3cccc4cccnc34)c3ccccc32)cc1 [Compound 22] | 631 | 222 | –
Cc1cc(C)cc(CN=c2n(Cc3ccc(C#N)cc3)c3ccccc3n2Cc2cccc3cccnc23)c1 [Compound 16] | – | 142 | 251
N#Cc1ccc(Cn2c(=NCCc3cccc(F)c3)n(Cc3cccc4cccnc34)c3ccccc32)cc1 [Compound 8] | 50.1 | 102 | –
COc1ccccc1CCN=c1n(Cc2ccc(C#N)cc2)c2ccccc2n1Cc1cccc2cccnc12 [Compound 14] | 158 | – | –
N#Cc1ccc(Cn2c(=NCCc3ccc(F)cc3)n(Cc3cccc4cccnc34)c3ccccc32)cc1 [Compound 11] | 79.4 | – | –
N#Cc1ccc(Cn2c(=NC(=O)c3cccc(Cl)c3)n(Cc3cccc4cccnc34)c3ccccc32)cc1 [Compound 19] | 316 | 160 | –
N#Cc1ccc(Cn2c(=NCCc3ccccc3)n(Cc3cccc4cccnc34)c3ccccc32)cc1 [Compound 25] | 2000 | – | –
COc1ccc(CCN=c2n(Cc3ccc(C)cc3)c3ccccc3n2Cc2cccc3cccnc23)cc1 [Compound 42] | – | – | 79.4
N#Cc1ccc(Cn2c(=NC(=O)c3cc(C(F)(F)F)cc(C(F)(F)F)c3)n(Cc3cccc4cccnc34)c3ccccc32)cc1 [Compound 24] | 794 | 190 | –
N#Cc1ccc(CN=c2n(Cc3ccc(C#N)cc3)c3ccccc3n2Cc2cccc3cccnc23)cc1 [Compound 2] | 10 | – | –
Cc1cccc(C(=O)N=c2n(Cc3ccc(C#N)cc3)c3ccccc3n2Cc2cccc3cccnc23)c1 [Compound 20] | 398 | 158 | –
O=C(Cn1c(=NCCc2ccc(Br)cc2)n(Cc2cccc3cccnc23)c2ccccc21)c1ccc(Br)cc1 [Compound 52] | – | 120 | 631
COc1ccc(CCCN=c2n(Cc3ccc(C#N)cc3)c3ccccc3n2Cc2cccc3cccnc23)cc1 [Compound 9] | 50.1 | 80 | –
N#Cc1ccc(Cn2c(=NCc3cccc(C#N)c3)n(Cc3cccc4cccnc34)c3ccccc32)cc1 [Compound 10] | 63.1 | – | –
N#Cc1ccc(Cn2c(=NC(=O)c3ccc(Cl)cc3Cl)n(Cc3cccc4cccnc34)c3ccccc32)cc1 [Compound 23] | – | 114 | 631
N#Cc1ccc(Cn2c(=NCCc3ccc(OCCO)cc3)n(Cc3cccc4cccnc34)c3ccccc32)cc1 [Compound 1] | 6.31 | – | –
N#Cc1ccc(Cn2c(=NCCCN3CCOCC3)n(Cc3cccc4cccnc34)c3ccccc32)cc1 [Compound 13] | 126 | 80 | –
N#Cc1ccc(Cn2c(=NCCC(c3ccccc3)c3ccccc3)n(Cc3cccc4cccnc34)c3ccccc32)cc1 [Compound 18] | 316 | 184 | –
COc1cc(C(=O)N=c2n(Cc3ccc(C#N)cc3)c3ccccc3n2Cc2cccc3cccnc23)cc(OC)c1OC [Compound 32] | – | 108 | > 100000
N#Cc1ccc(Cn2c(=NCCc3ccc(Br)cc3)n(Cc3cccc4cccnc34)c3ccccc32)cc1 [Compound 6] | 31.6 | – | –
COC(=O)c1ccc(CN=c2n(Cc3ccc(C#N)cc3)c3ccccc3n2Cc2cccc3cccnc23)cc1 [Compound 5] | 15.8 | – | –
N#Cc1ccc(Cn2c(=NCCCN3CCCC3=O)n(Cc3cccc4cccnc34)c3ccccc32)cc1 [Compound 15] | 200 | – | –

The next lines start with results.

IC50 [1, 2] [nM] | melting point [°C] | SMILES | IC50 ([1]; HeLa) [nM]
100000 | 66 | N#Cc1ccc(Cn2c(=NC(=O)c3ccc(Oc4ccccc4)cc3)n(Cc3cccc4cccnc34)c3ccccc32)cc1 [Compound 33] | –
100 | – | COc1ccc(CCN=c2n(Cc3ccc(Br)cc3)c3ccccc3n2Cc2cccc3cccnc23)cc1 [Compound 45] | –
126 | – | COC(=O)c1ccc(Cn2c(=NCCCN3CCOCC3)n(Cc3cccc4cccnc34)c3ccccc32)cc1 [Compound 37] | –
251 | – | COc1ccc(CCN=c2n(Cc3cccc(Cl)c3)c3ccccc3n2Cc2cccc3cccnc23)cc1 [Compound 49] | –
100 | 250 | COc1ccc(CCN=c2n(Cc3ccc(Cl)cc3)c3ccccc3n2Cc2cccc3cccnc23)cc1 [Compound 46] | –
79.4 | 87 | COc1ccc(Cn2c(=NCCc3ccc(Br)cc3)n(Cc3cccc4cccnc34)c3ccccc32)cc1 [Compound 44] | –
79.4 | 89 | COC(=O)c1ccc(Cn2c(=NCCc3cccc(F)c3)n(Cc3cccc4cccnc34)c3ccccc32)cc1 [Compound 36] | –
79.4 | 80 | COC(=O)c1cccc(Cn2c(=NCCc3ccc(Br)cc3)n(Cc3cccc4cccnc34)c3ccccc32)c1 [Compound 43] | –
251 | 204 | Cc1ccc(O)c(Cn2c(=NCCc3ccc(Br)cc3)n(Cc3ccc(C#N)cc3)c3ccccc32)n1 [Compound 57] | –
316 | 152 | COc1ccc(C(=O)Cn2c(=NCCc3ccc(Br)cc3)n(Cc3cccc4cccnc34)c3ccccc32)cc1 [Compound 50] | –
2510 | – | N#Cc1ccc(C(=O)Cn2c(=NCCc3ccc(Br)cc3)n(Cc3cccc4cccnc34)c3ccccc32)cc1 [Compound 53] | –
200 | – | CCOc1ccc(CCn2c(=NCCc3ccc(OC)cc3)n(Cc3cccc4cccnc34)c3ccccc32)cc1 [Compound 48] | –
– | 128 | COC(=O)c1ccc(Cn2c(=NCCc3ccc(Br)cc3)n(Cc3cccc4cccnc34)c3ccccc32)cc1 (as salt: HCl) [Compound 35] | –
63.1 | 212 | Cc1ccc(O)c(Cn2c(=NC3CCN(CCN)CC3)n(Cc3ccc(C#N)cc3)c3ccccc32)n1 [Compound 55] | –
31600 | 196 | N#Cc1ccc(Cn2c(=NC(=O)c3ccc([N+](=O)[O-])cc3)n(Cc3cccc4cccnc34)c3ccccc32)cc1 [Compound 28] | –
158 | 146 | COC(=O)c1ccc(Cn2c(=NCCC(c3ccccc3)c3ccccc3)n(Cc3cccc4cccnc34)c3ccccc32)cc1 [Compound 38] | –
200 | – | N#Cc1ccc(Cn2c(=NCCCN3CCOCC3)n(Cc3ccc4ccccc4n3)c3ccccc32)cc1 [Compound 56] | –
> 100000 | 131 | COC(=O)c1ccc(Cn2c(=NC(=O)c3ccc(Br)cc3)n(Cc3cccc4cccnc34)c3ccccc32)cc1 [Compound 40] | –
39800 | 100 | N#Cc1ccc(Cn2c(=NC(=O)c3ccc(-c4ccccc4)cc3)n(Cc3cccc4cccnc34)c3ccccc32)cc1 [Compound 29] | –
501 | – | CCOc1ccc(CCn2c(=NCCc3ccc(Br)cc3)n(Cc3cccc4cccnc34)c3ccccc32)cc1 [Compound 51] | –
50100 | 118 | CC(C)Oc1ccc(C(=O)N=c2n(Cc3ccc(C#N)cc3)c3ccccc3n2Cc2cccc3cccnc23)cc1 [Compound 30] | –
158 | – | COc1ccc(CCN=c2n(Cc3ccc(F)cc3)c3ccccc3n2Cc2cccc3cccnc23)cc1 [Compound 47] | –
7.94 | – | COC(=O)c1ccc(Cn2c(=NCCc3ccc(Br)cc3)n(Cc3cccc4cccnc34)c3ccccc32)cc1 [Compound 35] | –
63.1 | – | COc1ccc(CCN=c2n(Cc3ccc(OC)cc3)c3ccccc3n2Cc2cccc3cccnc23)cc1 [Compound 41] | –
